{"source": "patent US20150224164A1", "about": "“TREATMENT OF AUTISM SPECTRUM DISORDERS USING GLYCYL-L-2-METHYLPROLYL-L-GLUMATIC ACID” (Neuren Pharmaceuticals Limited, priority 2013, published 2015)", "key": {"MeCP2 knock-out mice": {"test_system": "MeCP2 knock-out mice", "conditions": "MeCP2 knock-out model; cited from earlier work"}, "[1]": {"test_system": "cortical neurons injured with okadaic acid", "test": "In vitro neuroprotection, cortical cultures injured with okadaic acid (MTT)", "type": "cell-based, rat", "conditions": "10 μM; okadaic acid injury; 24 hours incubation; MTT-assay", "procedure": "A dam was sacrificed by CO2-treatment, and then was prepared for caesarean section. After surgery, the embryos were removed from their amniotic sacs and decapitated. The heads were placed on ice in DMEM/F12 medium for striatum and PBS+0.65% D(+)-glucose for cortex.\nThe two cortical hemispheres were carefully removed by spatula from the whole brain with the ventral side facing upside into a PBS+0.65% D(+)-glucose containing petri dish. Forceps were put into the rostral part (near B. olfactorius) of the cortex in order to fix the tissue and two lateral-sagittal oriented cuts were made to remove the […] and entorhinal cortices. […]\nThe cells were triturated once with a glass Pasteur pipette in 1 ml of Neurobasal/B27 medium and subsequently twice by using a 1 ml insulin syringe with a 22 gauge needle. […] Cells were counted and adjusted to 50,000 cells per 60 μl. […]\nTo cause toxic injury to neurons, we exposed neurons to 1:100 parts of okadaic acid at concentrations of 30 nM or 100 nM and 0.5 mM 3-nitropropionic acid (for cerebellar microexplants only). […] The survival rate was determined by a colorimetric end-point MTT-assay at 595 nm in a multi-well plate reader. For the cerebellar microexplants four windows (field of 0.65 mm^2) with highest cell density were chosen and cells displaying neurite outgrowth were counted."}, "[2]": {"test": "Pharmacokinetics after intravenous bolus injection", "type": "in vivo, rat", "procedure": "Adult male Wistar rats weighing between 180 and 240 g were used to determine the pharmacokinetics of GPE and G2MePE. To facilitate intravenous bolus injections and blood sampling, all rats were surgically implanted with an indwelling jugular venous cannula under halothane anesthesia three days before the experiment. Groups of six rats were given a single intravenous bolus injection of either 30 mg/kg GPE or 10 mg/kg G2MePE dissolved in 0.1M succinate buffer (pH 6.5). Blood samples (about 220 μl each) were collected into heparinized tubes containing Sigma protease inhibitor cocktail for mammalian tissues at 10 and 0 min before injection of either GPE or G2MePE, and 1, 2, 4, 8, 16, 32, 64 and 128 min after injection of either GPE or G2MePE. The samples were centrifuged at 3000 g for 15 min at 4° C. and the plasma removed and stored at −80° C. until extraction and assay by either radioimmunoassay (“RIA”) or reverse phase HPLC. The RIA and HPLC methods used were conventional.\nThe k and half-life (t1/2) were calculated from the slope of the linear regression line in the elimination phase of the semi-logarithmic plot of plasma concentration versus time as: Log C=−kt/2.3+log C0. Results were expressed as mean±standard error."}}, "data": [{"compound": "NCC(=O)N1CCC[C@H]1C(=O)N[C@@H](CCC(=O)O)C(=O)O", "note": "[GPE, glycyl-L-prolyl-L-glutamic acid, reference compound]", "values": [{"measurement": "life span and neuronal function", "setting": "MeCP2 knock-out mice", "value": "prolong life and increase neuronal function"}, {"measurement": "neuroprotection", "setting": "[1]", "value": 64, "unit": "%"}, {"measurement": "degradation", "setting": "[2]; in vivo and in vitro", "value": "rapidly degraded"}, {"measurement": "first order rate constant", "setting": "[2]; single i.v. bolus, GPE 30 mg/kg, G-2-MePE 10 mg/kg", "value": "0.15 ± 0.014", "unit": "min⁻¹"}, {"measurement": "peak plasma concentration", "setting": "[2]; single i.v. bolus, GPE 30 mg/kg, G-2-MePE 10 mg/kg, mean±standard error", "value": "40 ± 10.8", "unit": "µg/mL"}]}]}
